Columns and labels:
[1] = In vitro intestinal digestion of carrier oil in fasted media (pH 6.5): solubilisation of CBD; format: in vitro ADME; details: with TPM
Protocol: FIG. 1—Solubilisation of CBD during in vitro intestinal digestion of carrier oil (MCT, LCT/LCFA, or a mixture of MCT:LCT/LCFA) in fasted media (pH 6.5). Total lipid was 110 mg (100 mg carrier oil+10 mg CBD). Data are mean±SD, n=3. A. CBD concentration (mg) during digestion in MCT. B. CBD concentration (mg) during digestion in LCT/LCFA (Maisine CC). C. CBD concentration (mg) during digestion in a mixture of MCT:LCT/LCFA (Maisine CC)
FIG. 2—Solubilisation of CBD in the presence of TPM during in vitro gastro-intestinal digestion of carrier oil (MCT, LCT/LCFA, or a mixture of MCT:LCT/LCFA) in fasted media. Total lipid was 110 mg (80-90 mg carrier oil+10 mg CBD+10-20 mg TPM). Data are mean±SD, n=3. A. CBD concentration (mg) during digestion in MCT with TPM. B. CBD concentration (mg) during digestion in LCT/LCFA (Maisine CC) with TPM. C. CBD concentration (mg) during digestion in a mixture of MCT:LCT/LCFA (Maisine CC) with TPM.
FIG. 3—Solubilisation of CBD in the presence of TPM during in vitro digestion of carrier oil (MCT, LCT/LCFA, or a mixture of MCT:LCT/LCFA) in fasted media (pH 6.5). Total lipid was 110 mg (80-90 mg carrier oil+10 mg CBD+10-20 mg TPM). Data are mean±SD, n=3. A. CBD concentration (mg) during digestion in 3:1 MCT:LCT/LCFA, with TPM. B. CBD concentration (mg) during digestion in 1:1 MCT:LCT/LCFA, with TPM. C. CBD concentration (mg) during digestion in 1:3 MCT:LCT/LCFA, with TPM.
In vitro digestion experiments were carried out to determine whether TPM in various carrier oils could increase the intestinal aqueous solubility of CBD. These experiments utilised a model of digestion in an intestinal environment at a pH of about 6.5. From the model, one can make determinations regarding the likely solubility of CBD or other cannabinoids such as THC in an aqueous intestinal fluid.

[2] = In-vitro rat lipolysis: simulated rat gastric (0-30 min) and intestinal (30-90 min) digestion; format: in vitro ADME
Protocol: FIG. 4. CBD solubility in-vitro in simulated gastric (0-30 min) and intestinal (30-90 min) conditions. Group 1: MCT. Group 2: 50 mg/ml TPM in MCT. Group 3: 100 mg/ml TPM in MCT. Group 4: 100 mg/ml TPM in 1:1 MCT/Maisine CC. Group 5: 200 mg/ml TPM in 1:1 MCT/Maisine CC.
Further in-vitro lipolysis experiments were conducted to investigate CBD dispersibility and solubility in a model of the gastric and intestinal spaces. The effect of TPM and the formulation vehicle was assessed by comparison to CBD dissolved in an MCT vehicle at 100 mg/ml. A rat gastric-intestinal model was selected in order to have best correlation with a subsequent in-vivo pk study in rats.
The in vitro lipolysis experiment simulated rat gastrointestinal conditions. The dispersion study was done in a lipolysis vessel containing simulated rat gastric medium at pH 2.4 and the gastric digestion of the formulations was assessed during 30 min. Afterwards, a concentrated bile buffer together with pancreatin was added to the gastric medium leading to the final concentrations which simulated the rat intestinal conditions. Subsequently, lipid digestion and drug solubilization was evaluated for 60 min.

[3] = In vivo bioavailability (pk study) after a single oral gavage; set-up: species or system Sprague-Dawley rats; details: rats
Protocol: Male Sprague-Dawley rats (301-353 g at the time of the study) are acclimatized for a minimum of seven days on standard feed with free access to water. The rats are housed under controlled environmental parameters (temperature: 22.1° C., relative humidity: 57%), and with reversed light cycle (12 h/12 h).
The formulations are administered to each rat by oral gavage with a polyurethane feeding tube (Instech Laboratories Inc., Plymouth Meeting, USA). Blood samples (200 μL) are collected from the tail vein before dosing and at 0, 0.5, 1, 2, 4, 6, and 8 h after dosing. After the 6 h blood sample, the rats were given access to standard feed. At 23 h, the rats are euthanized by gassing and a blood sample is withdrawn from the heart immediately after. All blood samples were collected in ethylenediaminetetraacetic acid (EDTA) tripotassium salt dihydrate coated tubes (Sarstedt, Helsingborg, Sweden), and centrifuged at 10,000 RPM for 10 min. After centrifugation, the plasma was transferred to polypropylene microtubes and stored at −20° C. until LC-MS analysis.

Structure (SMILES): C=C(C)[C@@H]1CCC(C)=C[C@H]1c1c(O)cc(CCCCC)cc1O [CBD, cannabidiol]
- aqueous CBD solubility during digestion, by MCT:LCT/LCFA ratio ([1]; vehicle 1:1 MCT:LCT/LCFA): best increase
- aqueous CBD solubility during digestion, by MCT:LCT/LCFA ratio ([1]; vehicle 1:3 MCT:LCT/LCFA, also significant CBD in immiscible oil phase): slight increase
- aqueous CBD solubility during digestion, by MCT:LCT/LCFA ratio ([1]; vehicle 3:1 MCT:LCT/LCFA): CBD precipitation
- dispersibility and solubility of CBD in simulated gastric and intestinal spaces ([2]; addition of TPM to MCT containing CBD (100 mg/ml)): increased
- dispersibility and solubility of CBD in the intestinal space ([2]; addition of TPM to MCT:LCT/LCFA vehicles containing CBD (100 mg/ml)): increased
- increase of mean Cmax relative to control CBD formulation in MCT alone ([3]; addition of 50 mg/ml TPM to MCT carrier): ~5 ×
- increase of mean Cmax relative to control CBD formulation in MCT alone ([3]; addition of 100 mg/ml TPM to MCT carrier): ~14 times
- increase of mean Cmax relative to control CBD formulation in MCT alone ([3]; addition of 100 mg/ml TPM to MCT:LCT/LCFA carrier): ~30 ×
- increase of mean Cmax relative to control CBD formulation in MCT alone ([3]; addition of 200 mg/ml TPM to MCT:LCT/LCFA carrier): ~40 times
